Experimental data from US20240408068A1, “Helicase Primase Inhibitors For Treating Cancer In A Combination Therapy With Oncolytic Viruses” (priority 2018, published 2024).

Key:
[1] = system: HSV-1; experiment: Survival of mice in first oHSV experiment; format: in vivo, Balbc/j mice; conditions: high dose HSV group subsequently treated with compound
Experimental: Pharmacological animal groups (8 animal per group, 64 animals in total) were organized as such: • 1. Control virus-untreated group: test compound vehicle (200 μL, 5% DMSO; 0.5% hydroxypropylmethylcellulose (HPMC) in PBS) oral gavage (20 gauge needle standard suspension applicator), once a day, for 10 days and starting 72 h after virus injection for the other groups. • 2. Control virus vehicle-treated group: 50 μL of virus vehicle, intratumoral injection when tumors reached an average volume of app. 40 mm^3, with test compound vehicle, oral gavage, once a day, for 10 days and starting 72 h after vehicle virus injection. • 3. HSV-1 (quantity 1; 5×10^6 pfu)-treated group: 50 μL of HSV-1 (5×10^6), intratumoral injection when tumors reached an average volume of app. […] HSV-1 (quantity 2; 1×10^8 pfu)-treated group: 100 μL of HSV-1 (1×10^8) intratumoral injection when tumors reached an average volume of app. […] HSV-1 (quantity 1; 5×10^6 pfu)-test compound-treated group: 50 μL of HSV-1 (5×10^6), intratumoral injection when tumors reached an average volume of app. […] HSV-1 (quantity 2; 1×10^8 pfu)-test compound-treated group: 100 μL of HSV-1 (1×10^8), intratumoral injection when tumors reached an average volume of app. […]
As previously mentioned, tumor volume and body weight of the animals were measured and recorded three times per week. […]

[2] = system: HSV-2; experiment: In vitro activity, HSV-2 infected Vero cells; format: cell-based; conditions: Human alphaherpesvirus 2, Vero
Experimental: The in vitro activity of the new compounds was measured as described in WO2017/174640 and in WO2019/068817.

[3] = system: HSV-1; experiment: Viral DNA (HSV-1 copies) within treated tumor samples, first oHSV experiment; format: in vivo, Balbc/j mice; conditions: for Total HSV-1 [copy/g tumor] mean: day 19
Experimental: At the end of efficacy monitoring period (on day 19 post-tumor cell inoculation, around ˜3-4 h after the last treatment with test compound), all surviving mice were anesthetized using isoflurane gas anesthesia (4% induction and 2% maintain) prior to blood sampling on heparin-coated tubes by retro-orbital puncture, for plasma collection. In addition, tumors were collected, snap-frozen, and stored at −80° C. until further analysis.
The tumors were collected as described above, snap frozen in liquid nitrogen and DNA of ˜25 mg tumor samples was extracted with a QIAamp DNA Mini Kit (Cat. No. 51326) on a QIAcube machine. 10 μL of the 200 μL HSV DNA containing elution volumue was quantified with an Argene HSV R-gene kit (Ref.: 69-004B) and normalized to 1 gram tumor sample (see below).

[4] = in vivo; cited from earlier work
[5] = in vivo; cited from earlier work; remark: listed apart in the source

Cc1nc(N(C)C(=O)Cc2ccc(-c3cc(F)ccc3F)cc2)sc1[S@@](C)(=N)=O [Example 7(−), (−)-(S)-2-(2′,5′-Difluoro-[1,1′-biphenyl]-4-yl)-N-methyl-N-(4-methyl-5-(S-methylsulfonimidoyl)thiazol-2-yl)acetamide]
rescue of mice from virus-induced death [1]: the mice can be rescued
IC50 [2]: 10 to 50 nM
Total HSV-1 [copy/g tumor] mean ([3]; Group 5: HSV-1 5 × 10^6 pfu + 10 mg/kg 72 pi): 154493 copy/g tumor
Total HSV-1 [copy/g tumor] mean ([3]; Group 6: HSV-1 5 × 10^6 pfu + 10 mg/kg 72 pi + αPD1 + αCTLA-4): 51301 copy/g tumor
Total HSV-1 [copy/g tumor] mean ([3]; Group 7: HSV-1 1 × 10^8 pfu + 10 mg/kg 72 hpi): 74312 copy/g tumor
Total HSV-1 [copy/g tumor] mean ([3]; Group 8: HSV 5 × 10^6 pfu + 10 mg/kg 2 h pi): 10600 copy/g tumor
reduction in viral DNA load ([3]; treatment 2 hours post infection compared to 72 hours delayed treatment): highest reduction in viral DNA load
ED50 in animal models [4]: lowest ED50 in animal models reported so far
brain exposure [5]: highest brain exposure reported to date
